Experimental data taken from patent US10519177B2, “Heterocyclic compounds and uses thereof” (Plexxikon Inc., priority 2013, dated 2019).

What was measured:
BRD4-BD12 (1-477) = BRD4-BD12 (1-477) (Homo sapiens (Human), UniProt O60885); test: Alphascreen binding assay BRD4-BD12; conditions: BRD4(1 2) H4; read-out: Biochemical activity (IC50 μM) BRD4(1 2) H4
Procedure, shortened: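 First, compound was preincubated 1 h at room temperature with the His-tagged BRD4 protein (BD1 44-164 or tandem BD12 1-477) and acetylated H4 peptide. Next, donor and acceptor beads were added at 7.5 μg/ml final. After 30 min, AlphaScreen emission was recorded.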

MV-4-11 cells = test: Oncology cell growth assay MV-4-11 (CellTiter Glo); format: cell-based; conditions: Homo sapiens, MV4-11, 72 h; MV-4-11, 3d growth; read-out: Cell activity (IC50 μM) MV-4-11 3d-Growth
Procedure, shortened: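 MV-4-11 AML cells (MLL-AF4), 3000 per well, exposed to 8-point 1:3 compound titration from 10 μM top concentration (0.2% DMSO) for 72 h. Viability by CellTiter Glo luminescence, normalized to DMSO controls; pIC50 from four-parameter curve fit.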

| SMILES | IC50 (BRD4-BD12 (1-477)) | IC50 (MV-4-11 cells) |
| --- | --- | --- |
| CC[C@@H](c1ccccn1)n1cc(-c2ccc(C#N)cc2)c2ncc(-c3c(C)noc3C)cc21 [P-0970, 4-[6-(3,5-dimethylisoxazol-4-yl)-1-[(1S)-1-(2-pyridyl)propyl]pyrrolo[3,2-b]pyridin-3-yl]benzonitrile] | < 1 µM | < 1 µM |
| COC(=O)c1ccc(-n2cc(P(=O)(c3ccccc3)c3ccccc3)c3cc(-c4c(C)noc4C)cnc32)cc1 [P-0950, methyl 4-[5-(3,5-dimethylisoxazol-4-yl)-3-diphenylphosphoryl-pyrrolo[2,3-b]pyridin-1-yl]benzoate] | < 1 µM | < 1 µM |
| Cc1noc(C)c1-c1cnc2c(I)cn(Cc3ccncc3)c2c1 [P-0935, 4-[3-iodo-1-(4-pyridylmethyl)pyrrolo[3,2-b]pyridin-6-yl]-3,5-dimethyl-isoxazole] | < 1 µM | < 1 µM |
| Cc1noc(C)c1-c1cnc2c(-c3ccc(CC(=O)O)cc3)cn(C(c3ccccn3)C3CCCCC3)c2c1 (centres unmarked) [P-1018, 2-[4-[1-[cyclohexyl(2-pyridyl)methyl]-6-(3,5-dimethylisoxazol-4-yl)pyrrolo[3,2-b]pyridin-3-yl]phenyl]acetic acid] | < 1 µM | < 1 µM |
| Cc1noc(C)c1-c1cnc2c(-c3ccc(COC(C)(C)C)cc3)cn(CC3CCC(F)(F)CC3)c2c1 [P-0910, 4-[3-[4-(tert-butoxymethyl)phenyl]-1-[(4,4-difluorocyclohexyl)methyl]pyrrolo [3,2-b]pyridin-6-yl]-3,5-dimethyl-isoxazole] | < 1 µM | < 1 µM |
| Cc1noc(C)c1-c1cnc2c(-c3ccc(C(=O)O)cc3)cn(Cc3ncccc3F)c2c1 [P-0949, 4-[6-(3,5-dimethylisoxazol-4-yl)-1-[(3-fluoro-2-pyridyl)methyl]pyrrolo[3,2-b]pyridin-3-yl]benzoic acid] | < 1 µM | < 1 µM |
| Cc1ccc(-c2cn(C(c3ccccc3)c3ccccn3)c3cc(-c4c(C)noc4C)cnc23)cc1 (centres unmarked) [P-0901, 3,5-dimethyl-4-[1-[phenyl(2-pyridyl)methyl]-3-(p-tolyl)pyrrolo[3,2-b]pyridin-6-yl]isoxazole] | < 1 µM | < 1 µM |
| COc1ccc(-c2cn([C@@H](C)c3ccccn3)c3cc(-c4c(C)noc4C)cnc23)cn1 [P-0975, 4-[3-(6-methoxy-3-pyridyl)-1-[(1S)-1-(2-pyridyl)ethyl]pyrrolo[3,2-b]pyridin-6-yl]-3,5-dimethyl-isoxazole] | < 1 µM | < 1 µM |
| COC(=O)c1ccc(-c2cn(Cc3cccc(C)n3)c3cc(-c4c(C)noc4C)cnc23)cc1OC [P-0939, methyl 4-[6-(3,5-dimethylisoxazol-4-yl)-1-[(6-methyl-2-pyridyl)methyl]pyrrolo[3,2-b]pyridin-3-yl]-2-methoxy-benzoate] | < 1 µM | < 1 µM |
| COC(=O)c1ccc(-c2cn(C(c3ccccn3)C3CCCCC3)c3cc(-c4c(C)noc4C)cnc23)cc1 (centres unmarked) [P-1016, methyl 4-[1-[cyclohexyl(2-pyridyl)methyl]-6-(3,5-dimethylisoxazol-4-yl)pyrrolo[3,2-b]pyridin-3-yl]benzoate] | < 1 µM | < 1 µM |
| Cc1noc(C)c1-c1cnc2c(-c3ccc(C4(C(=O)O)CC4)cc3)cn(CC3(C)CCOCC3)c2c1 [P-0943, 1-[4-[6-(3,5-dimethylisoxazol-4-yl)-1-[(4-methyltetrahydropyran-4-yl)methyl]pyrrolo[3,2-b]pyridin-3-yl]phenyl]cyclopropanecarboxylic acid] | < 1 µM | 1 to 10 µM |
| Cc1noc(C)c1-c1ccc2c(-c3cccc(CC(=O)O)c3)cn(C(c3ccccc3)c3ccccn3)c2c1 (centres unmarked) [P-1050, 2-[3-[6-(3,5-dimethylisoxazol-4-yl)-1-[phenyl(2-pyridyl)methyl]indol-3-yl]phenyl]acetic acid] | < 1 µM | < 1 µM |
| COC(=O)c1ccc(-c2cn(Cc3ccncc3)c3cc(-c4c(C)noc4C)cnc23)cc1 [P-0936, methyl 4-[6-(3,5-dimethylisoxazol-4-yl)-1-(4-pyridylmethyl)pyrrolo[3,2-b]pyridin-3-yl]benzoate] | < 1 µM | < 1 µM |
